From US20090143279A1 (priority 2007, published 2009)
Read-outs that look alike come from different tables or passages of the source.

Assays:
cytochrome c = assay type: cell-based, mouse; details: for cyt c (composite Z-score): normalized score vs mock-treated (DMSO) wells
C2C12 myotubes = details: for Viability (composite Z-score): normalized score vs mock-treated (DMSO) wells
OXPHOS gene expression = assay type: cell-based, mouse; details: for GE-HTS (composite Z-score): normalized score vs mock-treated (DMSO) wells
[1] = test system: cellular dehydrogenase activity; details: for MTT (composite Z-score): normalized score vs mock-treated (DMSO) wells
[2] = test system: mitochondrial membrane potential; assay type: cell-based, mouse; details: for ΔΨm (composite Z-score): normalized score vs mock-treated (DMSO) wells
mtOXPHOS transcripts = assay type: cell-based, mouse; details: for mitoOX (composite Z-score): normalized score vs mock-treated (DMSO) wells
reactive oxygen species = assay type: cell-based, mouse; details: for ROS (composite Z-score): normalized score vs mock-treated (DMSO) wells
nuOXPHOS transcripts = assay type: cell-based, mouse; details: for nucOX (composite Z-score): normalized score vs mock-treated (DMSO) wells
[3] = composite Z-score vs mock-treated (DMSO) wells, Conc 20 μM
[4] = composite Z-score vs DMSO wells, Conc 20 μM
[5] = 15.02 μM, composite Z-score vs DMSO
[6] = 20 μM, composite Z-score vs DMSO
[7] = normalized composite Z-score vs mock-treated (DMSO) wells, Conc 20 μM
[8] = composite Z-score vs DMSO, Conc 20 μM

## CC(=O)Oc1cccc2c1C(=O)c1c(OC(C)=O)cc(C(=O)O)cc1C2=O [diacerin]
Cytochrome c; Conc 20 μM
  cyt c (composite Z-score): 0.389
C2C12 myotubes; Conc 20 μM
  Viability (composite Z-score): −0.692
OXPHOS gene expression; Conc 20 μM
  GE-HTS (composite Z-score): −0.446
[1]; Conc 20 μM
  MTT (composite Z-score): −0.608
[2]; Conc 20 μM
  ΔΨm (composite Z-score): 0.195
mtOXPHOS transcripts; Conc 20 μM
  mitoOX (composite Z-score): −0.239
Reactive oxygen species; Conc 20 μM
  ROS (composite Z-score): 0.228
nuOXPHOS transcripts; Conc 20 μM
  nucOX (composite Z-score): −0.509

## CC(=O)c1c(O)c(C)c(O)c2c1oc1c(C(C)=O)c(O)c(C)c(O)c12 [diacetyldideisovaleryl-rhodomyrtoxin]
Cytochrome c; [3]
  cyt c: 0.057
C2C12 myotubes; [3]
  Viability: −0.779
OXPHOS gene expression; [3]
  GE-HTS: −0.776
[1]; [3]
  MTT: 0.875
[2]; [3]
  ΔΨm: 1.937
mtOXPHOS transcripts; [3]
  mitoOX: −0.703
Reactive oxygen species; [3]
  ROS: 0.967
nuOXPHOS transcripts; [3]
  nucOX: −0.742

## Cc1onc(-c2c(Cl)cccc2Cl)c1C(=O)N[C@@H]1C(=O)N2[C@@H]1SC(C)(C)[C@@H]2C(=O)O [dicloxacillin sodium]
Cytochrome c; [4]
  cyt c: −1.277
C2C12 myotubes; [4]
  Viability: −0.214
OXPHOS gene expression; [4]
  GE-HTS: 0.661
[1]; [4]
  MTT: −0.587
[2]; [4]
  ΔΨm: 0.196
mtOXPHOS transcripts; [4]
  mitoOX: 0.870
Reactive oxygen species; [4]
  ROS: −0.070
nuOXPHOS transcripts; [4]
  nucOX: 0.533

## C/C=C(/C(=C/C)c1ccc(O)cc1)c1ccc(O)cc1 [dienestrol]
Cytochrome c; [5]
  cyt c: 0.894
Cytochrome c; [6]
  cyt c: −0.653
C2C12 myotubes; [5]
  Viability: 0.829
C2C12 myotubes; [6]
  Viability: 0.290
OXPHOS gene expression; [5]
  GE-HTS: 0.033
OXPHOS gene expression; [6]
  GE-HTS: −0.280
[1]; [5]
  MTT: −0.652
[1]; [6]
  MTT: −0.326
[2]; [5]
  ΔΨm: −0.205
[2]; [6]
  ΔΨm: 0.129
mtOXPHOS transcripts; [5]
  mitoOX: 0.481
mtOXPHOS transcripts; [6]
  mitoOX: −0.222
Reactive oxygen species; [5]
  ROS: −0.210
Reactive oxygen species; [6]
  ROS: −0.260
nuOXPHOS transcripts; [5]
  nucOX: −0.191
nuOXPHOS transcripts; [6]
  nucOX: −0.251

## CC1(C)C(=O)CC[C@@]2(C)C1C[C@@H](O)[C@@]1(C)C3=CC(=O)O[C@@H](c4ccoc4)[C@]3(C)CCC21 (some centres unmarked) [dihydro-7-desacetyldeoxygedunin]
Cytochrome c; [7]
  cyt c: 0.599
C2C12 myotubes; [7]
  Viability: −0.527
OXPHOS gene expression; [7]
  GE-HTS: −0.961
[1]; [7]
  MTT: −1.403
[2]; [7]
  ΔΨm: −0.170
mtOXPHOS transcripts; [7]
  mitoOX: −1.218
Reactive oxygen species; [7]
  ROS: 0.608
nuOXPHOS transcripts; [7]
  nucOX: −0.719

## CC(C)C1COc2cc3oc(=O)ccc3cc2O1 (centres unmarked) [dihydro-obliquin]
Cytochrome c; [7]
  cyt c: −0.662
C2C12 myotubes; [7]
  Viability: −0.141
OXPHOS gene expression; [7]
  GE-HTS: 0.233
[1]; [7]
  MTT: −0.661
[2]; [7]
  ΔΨm: −0.159
mtOXPHOS transcripts; [7]
  mitoOX: 0.303
Reactive oxygen species; [7]
  ROS: 1.045
nuOXPHOS transcripts; [7]
  nucOX: 0.192

## C=C1CCC(=O)C(C)CCC2C1CC2(C)C (centres unmarked) [dihydrocaryophyllen-5-one]
Cytochrome c; [7]
  cyt c: 0.620
C2C12 myotubes; [7]
  Viability: 0.219
OXPHOS gene expression; [7]
  GE-HTS: −0.496
[1]; [7]
  MTT: −1.453
[2]; [7]
  ΔΨm: 0.090
mtOXPHOS transcripts; [7]
  mitoOX: −0.317
Reactive oxygen species; [7]
  ROS: 0.483
nuOXPHOS transcripts; [7]
  nucOX: −0.513

## CC(=O)Oc1cc2c(c(C)c1OC(C)=O)CC=C1[C@@]2(C)CC[C@@]2(C)C3C[C@](C)(C(=O)O)CC[C@]3(C)CC[C@]12C (some centres unmarked) [dihydrocelastryl diacetate]
Cytochrome c; Conc 20 μM
  cyt c (composite Z-score): −5.617
C2C12 myotubes; Conc 20 μM
  Viability (composite Z-score): −4.472
OXPHOS gene expression; Conc 20 μM
  GE-HTS (composite Z-score): −1.199
[1]; Conc 20 μM
  MTT (composite Z-score): −4.098
[2]; Conc 20 μM
  ΔΨm (composite Z-score): −3.309
mtOXPHOS transcripts; Conc 20 μM
  mitoOX (composite Z-score): −3.815
Reactive oxygen species; Conc 20 μM
  ROS (composite Z-score): −3.182
nuOXPHOS transcripts; Conc 20 μM
  nucOX (composite Z-score): 0.241

## CC(=O)O[C@@H]1CC2C(C)(C)C(=O)CC[C@]2(C)C2CC[C@]3(C)C(=CC(=O)O[C@H]3c3ccoc3)[C@@]21C (some centres unmarked) [dihydrodeoxygedunin]
Cytochrome c; [7]
  cyt c: 0.751
C2C12 myotubes; [7]
  Viability: −0.004
OXPHOS gene expression; [7]
  GE-HTS: −1.009
[1]; [7]
  MTT: −0.637
[2]; [7]
  ΔΨm: 0.443
mtOXPHOS transcripts; [7]
  mitoOX: −0.631
Reactive oxygen species; [7]
  ROS: 1.030
nuOXPHOS transcripts; [7]
  nucOX: −1.073

## CN1C[C@H](C(=O)N[C@]2(C)O[C@@]3(O)[C@@H]4CCCN4C(=O)[C@H](Cc4ccccc4)N3C2=O)C[C@@H]2c3cccc4[nH]cc(c34)C[C@H]21 [dihydroergotamine]
Cytochrome c; [4]
  cyt c: −0.494
C2C12 myotubes; [4]
  Viability: 0.293
OXPHOS gene expression; [4]
  GE-HTS: 0.008
[1]; [4]
  MTT: −0.604
[2]; [4]
  ΔΨm: 0.372
mtOXPHOS transcripts; [4]
  mitoOX: 0.143
Reactive oxygen species; [4]
  ROS: 1.157
nuOXPHOS transcripts; [4]
  nucOX: −0.021

## COC(=O)C[C@H]1C(C)(C)[C@@H](OC(C)=O)[C@@H]2CC3C4CC(=O)O[C@@H](c5ccoc5)[C@]4(C)CCC3[C@@]1(C)C2=O (some centres unmarked) [dihydrofissinolide]
Cytochrome c; [3]
  cyt c: −0.122
C2C12 myotubes; [3]
  Viability: 0.139
OXPHOS gene expression; [3]
  GE-HTS: −0.253
[1]; [3]
  MTT: −1.189
[2]; [3]
  ΔΨm: 0.196
mtOXPHOS transcripts; [3]
  mitoOX: 0.041
Reactive oxygen species; [3]
  ROS: 1.029
nuOXPHOS transcripts; [3]
  nucOX: −0.350

## COC(=O)[C@@H]1OC(=O)C2OC23[C@@]1(C)CCC1[C@@]2(C)CCC(=O)C(C)(C)C2C[C@@H](OC(C)=O)[C@]13C (some centres unmarked) [dihydrogedunic acid, methyl ester]
Cytochrome c; [3]
  cyt c: −0.443
C2C12 myotubes; [3]
  Viability: 0.103
OXPHOS gene expression; [3]
  GE-HTS: 0.244
[1]; [3]
  MTT: −1.062
[2]; [3]
  ΔΨm: −0.320
mtOXPHOS transcripts; [3]
  mitoOX: 0.438
Reactive oxygen species; [3]
  ROS: 0.411
nuOXPHOS transcripts; [3]
  nucOX: 0.141

## CC(=O)O[C@@H]1C[C@H]2C(C)(C)C(=O)CC[C@]2(C)[C@H]2CC[C@@]3(C)[C@H](c4ccoc4)OC(=O)[C@H]4O[C@]43[C@@]21C [dihydrogedunin]
Cytochrome c; [3]
  cyt c: 0.460
C2C12 myotubes; [3]
  Viability: 0.637
OXPHOS gene expression; [3]
  GE-HTS: 0.575
[1]; [3]
  MTT: −0.017
[2]; [3]
  ΔΨm: 1.079
mtOXPHOS transcripts; [3]
  mitoOX: 0.323
Reactive oxygen species; [3]
  ROS: −0.690
nuOXPHOS transcripts; [3]
  nucOX: 0.613

## COC(=O)[C@@H]1OC(=O)[C@H]2O[C@@]23[C@@]1(C)CCC1[C@@]2(C)CCC(=O)C(C)(C)C2C[C@@H](OC(C)=O)[C@]13C (some centres unmarked) [dihydrogeduninic acid, methyl ester]
Cytochrome c; Conc 20 μM
  cyt c (composite Z-score): 0.117
C2C12 myotubes; Conc 20 μM
  Viability (composite Z-score): 0.488
OXPHOS gene expression; Conc 20 μM
  GE-HTS (composite Z-score): 0.739
[1]; Conc 20 μM
  MTT (composite Z-score): −1.004
[2]; Conc 20 μM
  ΔΨm (composite Z-score): −0.571
mtOXPHOS transcripts; Conc 20 μM
  mitoOX (composite Z-score): 0.289
Reactive oxygen species; Conc 20 μM
  ROS (composite Z-score): 0.820
nuOXPHOS transcripts; Conc 20 μM
  nucOX (composite Z-score): 0.881

## CCCCCC1C(=O)CCC1CC(=O)OC (centres unmarked) [dihydrojasmonic acid, methyl ester]
Cytochrome c; [8]
  cyt c: −0.281
C2C12 myotubes; [8]
  Viability: 0.971
OXPHOS gene expression; [8]
  GE-HTS: 0.948
[1]; [8]
  MTT: −0.452
[2]; [8]
  ΔΨm: −0.204
mtOXPHOS transcripts; [8]
  mitoOX: 1.068
Reactive oxygen species; [8]
  ROS: −0.386
nuOXPHOS transcripts; [8]
  nucOX: 0.831

## CCCCCC1C(=O)CCC1CC(=O)O (centres unmarked) [dihydrojasmonic acid]
Cytochrome c; [7]
  cyt c: −0.847
C2C12 myotubes; [7]
  Viability: −1.223
OXPHOS gene expression; [7]
  GE-HTS: −0.313
[1]; [7]
  MTT: −0.149
[2]; [7]
  ΔΨm: −0.294
mtOXPHOS transcripts; [7]
  mitoOX: −0.505
Reactive oxygen species; [7]
  ROS: 0.827
nuOXPHOS transcripts; [7]
  nucOX: −0.168

## COc1c(CC(=O)c2cc3c(cc2O)OC(C)(C)C(O)C3)ccc2c1C=CC(C)(C)O2 (centres unmarked) [dihydromunduletone]
Cytochrome c; [7]
  cyt c: −0.146
C2C12 myotubes; [7]
  Viability: 1.580
OXPHOS gene expression; [7]
  GE-HTS: −1.331
[1]; [7]
  MTT: −0.805
[2]; [7]
  ΔΨm: 2.250
mtOXPHOS transcripts; [7]
  mitoOX: −1.248
Reactive oxygen species; [7]
  ROS: −0.049
nuOXPHOS transcripts; [7]
  nucOX: −1.276

## Cc1cc(=O)c2c(O)c3c(cc2o1)OCC(C)CC3 (centres unmarked) [dihydroptaeroxylin]
Cytochrome c; [7]
  cyt c: 0.403
C2C12 myotubes; [7]
  Viability: 0.605
OXPHOS gene expression; [7]
  GE-HTS: −0.581
[1]; [7]
  MTT: −0.526
[2]; [7]
  ΔΨm: −0.192
mtOXPHOS transcripts; [7]
  mitoOX: −0.787
Reactive oxygen species; [7]
  ROS: 0.151
nuOXPHOS transcripts; [7]
  nucOX: −0.410
